Patent publication US12091393B2, “Small molecule vaccine adjuvant for enhancing or prolonging immune response” (The Regents of the University of California, priority 2018, dated 2024)
“Also recorded” adds a separate entry of the source. Read-outs that look alike come from different tables or passages of the source.

Experiments:
NF-κB [1] = test: cell-based NF-κB FRET assay; conditions: compound + LPS; two point normalized, compound 1 as 200%, LPS (10 ng/mL) as 100%
Excerpt: Site A was assigned the 4-substituent of thiazole ring, site B was the thiazole ring itself, site C was the central amide bond in the structure, site D was the benzene ring bearing 1,4-carboxyl and sulfamoyl group, site E was the sulfonamide functional group and site F was the amide substituent on the sulfamoyl group.

THP-1 cells = test: Cell viability assay (MTT); assay type: cell-based; conditions: compound 5 μM alone, 18 h, normalized to DMSO as 100%
Description: THP-1 cells were plated in 96-well plates (10^5 cells/well) in 100 μL RPMI supplemented with 10% FBS, 100 U/mL penicillin and 100 μg/ml streptomycin. Compounds were dissolved in DMSO at 1 mM stock solution and were further diluted to 10 μM in the assay medium. 100 μL of this solution was added to the cells to obtain a final compound concentration of 5 μM ([…]). After 18 h incubation, a solution of MTT in assay media (0.5 mg/mL) was added to each well and further incubated for 4 to 6 h, followed by addition of cell lysis buffer (15% w/v SDS and 0.12% v/v 12N HCl aqueous solution), incubated overnight, and then absorbance measured at 570 nm using 650 nm as reference using Tecan Infinite M200 plate reader.

NF-κB [2] = test: Measurement of NF-κB activation using THP1-Blue NF-κB cells (SEAP); assay type: cell-based; conditions: for activity at 5 µM: 20 h, two point normalized, compound 1 as 200%; for NF-κB activity (SAR discussion, in words): evaluated in both the presence and absence of LPS
[3] = compound 5 μM + LPS, LPS (10 ng/mL) as 100%, read-out: NF-κB SEAP Compound + LPS % Activation
[4] = compound 5 μM alone, LPS or DMSO as 100%, read-out: NF-κB SEAP Compound alone % Activation

| Compound | NF-κB FRET Compound + LPS % Activation (NF-κB [1]) [%] | MTT Compound alone % Viability (THP-1 cells) [%] | activity at 5 µM (NF-κB [2]; [3]) [%] | activity at 5 µM (NF-κB [2]; [4]) [%] | NF-κB activity (SAR discussion, in words) (NF-κB [2]) |
| --- | --- | --- | --- | --- | --- |
| Cc1ccc(C)c(-c2csc(NC(=O)c3ccc(C(=O)N4CCCCC4)cc3)n2)c1 [Compound 49c, N-(4-(2,5-dimethylphenyl)thiazol-2-yl)-4-(piperidine-1-carbonyl)benzamide] | 134.09 | 87.59 | 109 | 99.3 | none of these modifications at site D or E were tolerated |
| Cc1ccc(C)c(-c2csc(NS(=O)(=O)c3ccc(C(=O)N4CCCCC4)cc3)n2)c1 [Compound 55, N-(4-(2,5-dimethylphenyl)thiazol-2-yl)-4-(piperidine-1-carbonyl)benzenesulfonamide] | 70.37 | 58.91 | 91.7 | 103 | inactive |
| C#CCN(CC)S(=O)(=O)c1ccc(C(=O)Nc2nc(-c3cc(C)ccc3C)cs2)cc1 [Compound 72b, N-(4-(2,5-dimethylphenyl)thiazol-2-yl)-4-(N-ethyl-N-(prop-2-yn-1-yl)sulfamoyl)benzamide] | 129.85 | 81.42 | 109 | 105 | lost their activity |
| C#CCN(CCC)S(=O)(=O)c1ccc(C(=O)Nc2nc(-c3cc(C)ccc3C)cs2)cc1 [Compound 72c, N-(4-(2,5-dimethylphenyl)thiazol-2-yl)-4-(N-(prop-2-yn-1-yl)-N-propylsulfamoyl)benzamide] | 133.88 | 84.00 | 122 | 103 | lost their activity |
| CCc1csc(NC(=O)c2ccc(S(=O)(=O)N3CCCCC3)cc2)n1 [Compound 12h, N-(4-ethylthiazol-2-yl)-4-(piperidin-1-ylsulfonyl)benzamide] | 108.38 | 122.75 | 94 | 98.7 | None of these molecules had any NF-κB activity |
| Cc1ccc(C)c(-c2csc(NC(=O)c3ccc(S(=O)(=O)N4CCN(C(=O)OC(C)(C)C)CC4)cc3)n2)c1 [Compound 58f, tert-butyl 4-((4-((4-(2,5-dimethylphenyl)thiazol-2-yl)carbamoyl)phenyl)sulfonyl)piperazine-1-carboxylate] | 95.64 | 81.23 | 105 | 101 | inactive |
| Cc1ccc(C)c(-c2csc(NC(=O)c3cccc(C(=O)N4CCCCC4)c3)n2)c1 [Compound 49d, N-(4-(2,5-dimethylphenyl)thiazol-2-yl)-3-(piperidine-1-carbonyl)benzamide] | 136.46 | 88.06 | 112 | 99.6 | none of these modifications at site D or E were tolerated |
| CCCC1CCN(S(=O)(=O)c2ccc(C(=O)Nc3nc(-c4cc(C)ccc4Br)cs3)cc2)CC1 [Compound 59, N-(4-(2-bromo-5-methylphenyl)thiazol-2-yl)-4-((4-propylpiperidin-1-yl)sulfonyl)benzamide] | 211.88 | 98.59 | 298 | 484 | very potent and showed better potency than compound 1 |
| Cc1ccccc1-c1csc(NC(=O)c2ccc(S(=O)(=O)N3CCCCC3)cc2)n1 [Compound 12b, 4-(piperidin-1-ylsulfonyl)-N-(4-(o-tolyl)thiazol-2-yl)benzamide] | 100.13 | 95.69 | 105 | 99.2 | inactive |
| Cc1ccc(Br)cc1-c1csc(NC(=O)c2ccc(S(=O)(=O)N3CCCCC3)cc2)n1 [Compound 12e, N-(4-(5-bromo-2-methylphenyl)thiazol-2-yl)-4-(piperidin-1-ylsulfonyl)benzamide] | 189.97 | 91.50 | 213 | 207 | active |
| CCCN(CCC)S(=O)(=O)c1ccc(C(=O)Nc2nc(-c3cc(C)ccc3C)cs2)cc1 [Compound 58b, N-(4-(2,5-dimethylphenyl)thiazol-2-yl)-4-(N,N-dipropylsulfamoyl)benzamide] | 190.52 | 83.69 | 260 | 243 | tolerated; also recorded: active |
| CCCC#Cc1sc(NC(=O)c2ccc(S(=O)(=O)N3CCCCC3)cc2)nc1-c1cc(C)ccc1Br [Compound 64, N-(4-(2-bromo-5-methylphenyl)-5-(pent-1-yn-1-yl)thiazol-2-yl)-4-(piperidin-1-ylsulfonyl)benzamide] | 196.14 | 101.42 | 287 | 348 | very potent and showed better potency than compound 1 |
| Cc1ccc(C)c(-c2ccc(NC(=O)c3ccc(S(=O)(=O)N4CCCCC4)cc3)cn2)c1 [Compound 18d, N-(6-(2,5-dimethylphenyl)pyridin-3-yl)-4-(piperidin-1-ylsulfonyl)benzamide] | 58.39 | 95.35 | 97.2 | 98.2 | none of these molecules that replaced the thiazole functionality were active |
| Cc1cccc(-c2csc(NC(=O)c3ccc(S(=O)(=O)N4CCCCC4)cc3)n2)c1C [Compound 12l, N-(4-(2,3-dimethylphenyl)thiazol-2-yl)-4-(piperidin-1-ylsulfonyl)benzamide] | 206.60 | 98.37 | 157 | 195 | retained activity |
| CCCCCc1sc(NC(=O)c2ccc(S(=O)(=O)N3CCCCC3)cc2)nc1-c1cc(C)ccc1C [Compound 18t, N-(4-(2,5-dimethylphenyl)-5-pentylthiazol-2-yl)-4-(piperidin-1-ylsulfonyl)benzamide] | 213.25 | 110.37 | 132 | 119 | loss in activity |
| C#CC1CCN(S(=O)(=O)c2ccc(C(=O)Nc3nc(-c4cc(C)ccc4C)cs3)cc2)CC1 [Compound 72d, N-(4-(2,5-dimethylphenyl)thiazol-2-yl)-4-((4-ethynylpiperidin-1-yl)sulfonyl)benzamide] | 123.22 | 83.27 | 152 | 112 | active |
